Laboratory results: ChEMBL document CHEMBL1201862, “PubChem BioAssay data set” (2004)
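48-hour exposure; five concentrations; linearly interpolated endpoints. The concentration for 50% growth inhibition is given as GI50.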 Calls of active or inactive are those of the source. No stated cut-off is given here; in the data, active = GI50 up to about 1.1 µM and inactive = higher.

Assays:
Assay in all cases: inhibition of tumour cell growth, NCI panel, 48 h
MCF7 = test system: MCF7
HL-60 = test system: HL-60
Malme-3M = test system: Malme-3M
DLD-1 = test system: DLD-1
M19-MEL = test system: M19-MEL
RPMI-8226 = test system: RPMI-8226
EKVX = test system: EKVX
CAKI-1 = test system: CAKI-1
NCI-H522 = test system: NCI-H522
SF-539 = test system: SF-539
HOP-18 = test system: HOP-18
A498 = test system: A498
NCI/ADR-RES = test system: NCI/ADR-RES
M14 = test system: M14
SR = test system: SR
TK-10 = test system: TK-10

Measured: GI50

Cc1ccc(N(O)C(C)(C)C)cc1
inactive: MCF7 > 100 µM | HL-60 > 78.3 µM | Malme-3M > 100 µM | DLD-1 > 100 µM | M19-MEL > 100 µM | RPMI-8226 > 100 µM | EKVX > 100 µM | CAKI-1 > 100 µM | NCI-H522 > 100 µM | SF-539 > 100 µM | HOP-18 > 100 µM | A498 > 100 µM | NCI/ADR-RES > 100 µM

O=[N+]([O-])c1cc2ncc(-c3ccccc3)c(O)c2cc1/C(Cl)=C/c1ccccc1
inactive: MCF7 5.02 µM | HL-60 5.25 µM | DLD-1 3.83 µM | M19-MEL 11.6 µM | RPMI-8226 2.39 µM | EKVX 5.57 µM | CAKI-1 19.1 µM | NCI-H522 3.48 µM | SF-539 11.6 µM | HOP-18 2.11 µM | A498 16.1 µM | NCI/ADR-RES 4.93 µM

Nc1nc(=O)n(CC(O)CO)s1 (stereo not drawn)
inactive: M14 > 100 µM | SR > 100 µM | HL-60 > 100 µM | Malme-3M > 100 µM | DLD-1 > 100 µM | M19-MEL > 100 µM | RPMI-8226 > 100 µM | EKVX > 100 µM | TK-10 > 100 µM | SF-539 > 100 µM | HOP-18 > 100 µM | A498 > 100 µM

CC(C)(C)[Si](OC1CC(n2cnc3c(N)ncnc32)OC1CO)(c1ccccc1)c1ccccc1 (stereo not drawn)
inactive: M14 34.6 µM | SR 14.5 µM | HL-60 41.4 µM | Malme-3M 19 µM | DLD-1 15.5 µM | M19-MEL 19.7 µM | RPMI-8226 14.1 µM | EKVX 18.4 µM | NCI-H522 16 µM | TK-10 24.2 µM | SF-539 20.2 µM | HOP-18 67.6 µM | A498 17.9 µM

COc1ccc(-c2cc(-c3ccccc3)c(C#N)c(=O)n2C2OC(CO)C(O)C(O)C2O)cc1 (stereo not drawn)
inactive: M14 > 100 µM | SR > 100 µM | HL-60 > 100 µM | Malme-3M > 100 µM | DLD-1 > 100 µM | M19-MEL > 100 µM | RPMI-8226 > 100 µM | EKVX > 100 µM | NCI-H522 > 100 µM | TK-10 > 100 µM | SF-539 > 100 µM | HOP-18 > 100 µM | A498 > 100 µM

O=C(NCCCCCCNC(=O)n1cc(F)c(=O)[nH]c1=O)NCCCOCCOCCCNC(=O)C(O)C(O)C(O)C(O)CO (stereo not drawn)
inactive: MCF7 > 2.27 µM | HL-60 > 2.29 µM | Malme-3M > 1.53 µM | DLD-1 2.44 µM | M19-MEL > 2.5 µM | RPMI-8226 > 2.5 µM | EKVX > 2.5 µM | NCI-H522 > 2.5 µM | SF-539 > 1.84 µM | HOP-18 > 2.5 µM | A498 > 2.5 µM | NCI/ADR-RES > 2.5 µM

CC(=O)NC(Cc1ccsc1)C(=O)O (stereo not drawn)
inactive: MCF7 > 100 µM | HL-60 > 100 µM | Malme-3M > 100 µM | DLD-1 > 100 µM | M19-MEL > 100 µM | RPMI-8226 > 100 µM | EKVX > 100 µM | CAKI-1 > 100 µM | NCI-H522 > 100 µM | SF-539 > 100 µM | HOP-18 > 100 µM | A498 > 100 µM | NCI/ADR-RES > 100 µM
